# Measured values reported in PMC4847154, “Sticky swinging arm dynamics: studies of an acyl carrier protein domain from the mycolactone polyketide synthase” (Biochemical Journal, 2016).
# Experiments:
# [1] = target: T1, mACP9 (ACP domain from MLSA2, module 9 of the mycolactone PKS) (Mycobacterium ulcerans, UniProt Q6MZA5); assay: circular dichroism thermal denaturation; type: binding; conditions: absolute Tm
# T1 construct: excised ACP domain, residues 2050-2140; N-terminal His6-tag cleaved by thrombin leaving GSHM; E. coli Tuner(DE3); monomer; Ppant attachment at Ser2096
# [2] = target: T1, mACP9 (ACP domain from MLSA2, module 9 of the mycolactone PKS); assay: solution NMR structure; type: binding; conditions: covalent at Ser2096; nonpolar pocket between helix α2 and turns α2′ and α3′; phosphate buffer pH 7.5, 283 K
compound,measurement,setting,value
"CC(C)(COP(=O)(O)O)[C@@H](O)C(=O)NCCC(=O)NCCS [holo, 4′-phosphopantetheine]",Tm,"[1]; covalent at Ser2096 (holo form), 20 mM sodium hydrogen phosphate, 50 mM NaF, pH 7.5, apo reference in the same sentence",59 °C
"CCCCCCCC(=O)SCCNC(=O)CCNC(=O)[C@H](O)C(C)(C)COP(=O)(O)O [octanoyl, octanoyl-phosphopantetheine group]",Tm,"[1]; covalent at Ser2096 (octanoyl-Ppant), buffer as above, apo and holo references in the same sentence",57 °C
same,solution NMR structure,[2],final ensemble for octanoyl-mACP9 were deposited in the Protein Data Bank under ID code 5HV8
hexanoyl-mACP9 (hexanoyl-phosphopantetheine group),Tm,"[1]; covalent at Ser2096 (hexanoyl-Ppant), buffer as above, apo and holo references in the same sentence",58 °C
